The numbers were not newly measured in patent publication US20070212386A1, “COATINGS FOR IMPLANTABLE MEDICAL DEVICES” (Sahajanand Medical Technologies Pvt. Ltd., priority 2006, published 2007), which cites them from elsewhere.

The test system of series [1] is collagen induced platelet aggregation. The note with it: literature refs [2,5].
The conditions of series [2]: general statement.

As to `O=c1c(-c2ccc(O)cc2)coc2cc(O)cc(O)c12` [Genistein, 5,7-dihydroxy-3-(4-hydroxyphenyl)-4H-1-benzopyran-4-one], the “concentration preventing collagen induced platelet aggregation” value in series [1] is on record as “more than 25 μM”. Besides, in series [2], the solubility in water entry is given as “practically insoluble in water”. As to `O=c1c(O)c(-c2ccc(O)c(O)c2)oc2cc(O)cc(O)c12` [Quercetin, 2-(3,4-dihydroxyphenyl)-3,5,7-trihydroxy-4H-1-benzopyran-4-one], in series [2], the solubility in water result is “practically insoluble in water”. With `O=c1c(-c2ccc(O)cc2)coc2cc(O[C@@H]3O[C@H](CO)[C@@H](O)[C@H](O)[C@H]3O)cc(O)c12` [Genistin], the solubility in water result in series [2] is reported as “greater water solubility than genistein”.
